Marks after values point to notes of the source that are not given here.
Key:
[1] = test system: cell suspension (HOX9910B); test: Comparison between CTAB and other emulsifiers for extraction of HOX; format: cell-based, Hansenula polymorpha; conditions: 20 h, 25°C, control (cells and buffer) = 100
Method: Five mL of cell suspension (cells+supernatant) was added to a 15 mL centrifuge tube (HOX9910B, 305 g cells/liter wet weight, 1.6 U/ml extracellular HOX activity). Cells were separated by centrifugation at 4000 g for 10 min. Cells were then re-suspended in 4.0 mL 25 mM citric acid, pH 6.3 supplemented with either CTAB, emulsifiers SLL, YN, capric acid, lysolecithin, or lecithin. The cells were then incubated for 20 hours at 25° C. (500 rpm).

Hansenula polymorpha [2] = test: HOX extraction with different quaternary ammonium compounds; format: cell-based; conditions: final concentration 0.4% (w/v); 24 h, 25°C, 200 RPM; LTAB = 100
Method: Several quaternary ammonium compounds were tested with respect to extraction of the intracellular HOX enzyme from Hansenula polymorpha. A sample of fermentation broth was withdrawn from a 6 L scale fermentation where the biomass concentration was approximately 340 g wet weight per L. One mL of a 4% (w/v) solution of each of the quaternary ammonium compounds listed in Table 8 was added to 9 mL of fermentation broth in plastic tubes. After 24 h of incubation at 25° C. at 200 RPM the tubes were centrifuged 10 min. at 12000 g. The supernatants were analysed for HOX activity using the HOX assay as previously described.

[3] = test system: cell suspension (HOX9926-7); test: Extraction of HOX by CTAB combined with salts and at different temperatures; format: cell-based, Hansenula polymorpha; conditions: for HOX activity, %: 26 h, 25°C, control = 100
Method: In order to examine the mechanism of the CTAB effect, CTAB was combined with chaotrophic and nonchaotrophic salts. Five mL cell suspension (cells+supernatant) was added to a 15 mL centrifuge tube (HOX9926-7, 317 g cells/liter wet weight, 0.3 U/mL extracellular HOX activity). Cells were separated by centrifugation at 4000 g for 10 min. The supernatant was then supplemented with either CTAB, CTAB+NaCl, CTAB+urea, CTAB+ammonium sulphate, or the non-ionic detergent, octyl-glucoside. The cells were then re-suspended in 4.0 mL supernatant and incubated for 26 hours at 25° C. (500 rpm). In this experiment, the effect of shaking and temperature was also investigated. After incubation, the cell-free extract was used to estimate HOX activity using the HOX assay as outlined in Example 4.

Hansenula polymorpha [4] = test: Time course of HOX extraction with CTAB, LTAB and CTAC; format: cell-based; conditions: 25°C
Method: The time course of HOX extraction was studied with CTAB, LTAB and CTAC. A fermentation sample containing 280 g wet weight of Hansenula polymorpha per L was withdrawn from the fermentor. A 4% (w/v) solution of CTAB, LTAB and CTAC was added to a final concentration of 0.2 or 0.4% (w/v) to plastic tubes containing 9 mL of fermentation broth. After 0, 7, 17, 24, and 48 h of incubation at 25° C. at 200 RPM the tubes were centrifuged 10 min. at 12000×g. The supernatants were analysed for HOX activity using the HOX assay as previously described.

H. polymorpha = test: Comparison of mechanical and LTAB recovery of glucan lyase (DNS method); format: cell-based, Hansenula polymorpha; conditions: induced cells, transformants 2 and 8; 0.2% LTAB versus Mini Bead-Beater
Method: The cells are resuspended in 5 mM sodium acetate pH=5.5 with 0.2% LTAB at 30% wet biomass in order to lyse the cells and release the intracellular glucan lyase.
The tubes are incubated over night with shaking at 37° C. The cells are harvested by centrifuging at 4000 rpm in 10 minutes and the glucan lyase activity is determined in the cell-free extract and in the pellet. This is done to check if LTAB had opened the cells successfully before starting the purification of glucan lyase.
Two transformants that expressed a high level of glucan lyase (transformant number 2 and 8) are grown at 24° C.
To compare the specific activity under repressed and induced conditions samples are collected when the cells are grown in YND+2% glucose (repressed) and in YND+1% glycerol with 1% methanol added on the second day of growth (induced).
The assay is performed as described in S. Yu et al., 1998. The red colour indicates glucan lyase activity is much stronger when the induced cells are opened with LTAB compared with opening of the cells mechanically on a Mini Bead-Beater (E1-E12 compared with C1-C12). […] When the cells are grown in YND+2% glucose a very low specific activity is observed as expected since the FMD promoter is repressed in this media. […] The assay detected a quite high glucan lyase activity in the pellet.

[5] = test system: Pichia pastoris strain #349; test: HOX extraction with LTAB from Pichia pastoris; format: cell-based; conditions: 180 μL of 10% (w/v) LTAB in 9 mL broth; 24 h, 30°C; control = 100
Method: The extracting effect of LTAB was tested on the Pichia pastoris strain #349 that produces HOX intracellularly. A sample of fermentation broth was withdrawn from a 6 L scale fermentation where the biomass concentration was approximately 232 g wet weight per L. Nine mL of fermentation broth was added to plastic tubes together with 0 (control) or 180 μL of a 10% (w/v) solution of LTAB. After 24 h of incubation at 30° C. at 20 RPM the tubes were centrifuged 5 min. at 9000 g. The supernatants were analysed for HOX activity using the HOX assay as previously described.

[6] = Determination of LTAB by LC-ESI-MS (optimised method) in fermentation supernatants; conditions: 0.20% (w/v) LTAB added
Method: The analysis method for the quaternary ammonium compounds was optimised by using a different column, and by using different mobile phase. Two 90 L scale fermentations (Vest0002b with a biomass concentration of 314 g/L wet cells and Vest0003b with a biomass concentration of 332 g/L wet cells) were added LTAB to a concentration of 0.20% (w/v), and HOX was extracted for 24 h. A sample from each fermentation was centrifuged at 10000 g for 10 minutes, and the resulting supernatants were withdrawn for LTAB analysis. The following method was used to quantify the LTAB content in the supernatants by means of LC-ESI-MS on a Hewlett-Packard 1100 HPLC-MS system consisting of the following units:
The system was equipped with a PLRP-S, 100 Å, 5 μm, 250×4.6 […] id. (Polymer Laboratories) column. Column temperature was 25° C.
The chromatographic conditions were a mobile phase consisting of 0.1% heptafluorobutyric acid in methanol. The column was run with a solvent flow rate of 1.00 mL/min and an injection volume of 5 μL. The samples were diluted 25 fold with methanol and filtered through Gelman GHP Acrodisc 13 mM Minispike […] before injection.
The detector settings were the following: SIM parameters: m/z 228.1 (lauroyltrimethylammonium cation). […]

Hansenula polymorpha [7] = test: HOX extraction with CTAB compared to Triton X-100; format: cell-based; conditions: for HOX activity: 22 h, 25°C, 200 rpm, control ferment 1.2
Method: CTAB or Triton X-100 was added to 5 mL of ferment, (sample HOX9954, Mut 45, 18.10.99, HVP) in a centrifuge tube. Water was added to the control. The samples were incubated at 25° C. for 22 h at 200 rpm. After incubation the samples were centrifuged and the supernatant was analyzed for HOX activity as previously described.

[8] = 0.4% in 25 mM citric acid pH 6.3
[9] = 0.5% in 25 mM citric acid pH 6.3
[10] = 1.0% in 25 mM citric acid pH 6.3

In the case of 3-sn-phosphatidylcholine [lecithin], the “HOX activity, %” value [1, 8] is reported as 140%.

In the case of `CCCCCCCCCCCCCC[N+](C)(C)C.[Cl-]` [MTAC, Myristyl Trimethyl Ammonium Chloride], the “Extracted HOX activity normalised with extracted amount with LTAB” value (from here on “Extracted HOX activity normalised … with LTAB”) (Hansenula polymorpha [2]) is reported as 71.

With `CCCCCCCCCCCCCCCCCC(=O)[N+](C)(C)C.[Br-]` [STAB, Stearoyl Trimethyl Ammonium Bromide] the “Extracted HOX activity normalised … with LTAB” value (Hansenula polymorpha [2]) was 38.

For `CCCCCCCCCC(=O)O` [capric acid, decanoic acid], the “HOX activity, %” value [1, 9] was 120% and the “HOX activity, %” value [1, 10] was 140%.

In the case of `CCCCCCCCCCCC(=O)OC(C)C(=O)OC(C)C(=O)[O-].[Na+]` (stereo not shown) [emulsifier SSL, Sodium Lauroyl Lactylate], the “HOX activity, %” value [1, 9] is reported as 160% and the “HOX activity, %” value [1, 10] is reported as 140%.

For `CCCCCCCCO[C@@H]1O[C@H](CO)[C@@H](O)[C@H](O)[C@H]1O` [octyl-glycoside, octyl-glucoside], the “extracting effect on HOX” value ([3]; 0.2% and 0.4%) was “no significant extracting effect”, the “HOX activity, %” value ([3]; 0.2%) was 130% and the “HOX activity, %” value ([3]; 0.4%, 500 rpm) was 190%.

In the case of “Lauroyl Trimethyl Ammonium Bromide [LTAB]”, the “Extracted HOX activity normalised … with LTAB” value (Hansenula polymorpha [2]) is reported as 100, the “Extracted HOX normalised to 0.4% (w/v) LTAB after 48 h” value (Hansenula polymorpha [4]; 0.2% (w/v), 0 h) is reported as 5 and the “Extracted HOX normalised to 0.4% (w/v) LTAB after 48 h” value (Hansenula polymorpha [4]; 0.2% (w/v), 7 h) is reported as 15. For the same compound, the “Extracted HOX normalised to 0.4% (w/v) LTAB after 48 h” value (Hansenula polymorpha [4]; 0.2% (w/v), 17 h) was 49, the “Extracted HOX normalised to 0.4% (w/v) LTAB after 48 h” value (Hansenula polymorpha [4]; 0.2% (w/v), 24 h) was 65 and the “Extracted HOX normalised to 0.4% (w/v) LTAB after 48 h” value (Hansenula polymorpha [4]; 0.2% (w/v), 48 h) was 78. The “Extracted HOX normalised to 0.4% (w/v) LTAB after 48 h” value (Hansenula polymorpha [4]; 0.4% (w/v), 0 h) was 6 ± 1,, the “Extracted HOX normalised to 0.4% (w/v) LTAB after 48 h” value (Hansenula polymorpha [4]; 0.4% (w/v), 7 h) was 25 and the “Extracted HOX normalised to 0.4% (w/v) LTAB after 48 h” value (Hansenula polymorpha [4]; 0.4% (w/v), 17 h) was 74. The “Extracted HOX normalised to 0.4% (w/v) LTAB after 48 h” value (Hansenula polymorpha [4]; 0.4% (w/v), 24 h) was 83 ± 8,, the “Extracted HOX normalised to 0.4% (w/v) LTAB after 48 h” value (Hansenula polymorpha [4]; 0.4% (w/v), 48 h) was 100 ± 25, and the “specific activity of glucan lyase, LTAB-treated cells versus mechanical opening” value (H. polymorpha) was ~60 fold. For the same compound, the “Extracted HOX activity normalised to the control tube without LTAB” value [5] was 3000^c and the “share of the added LTAB found in the cell free fraction” value [6] was “about 27%”.

With lysophosphatidylcholine [lyso-lecithin] the “HOX activity, %” value [1, 8] was 260%.

With “polyethoxylated octylphenol [Triton X-100]” the HOX activity (Hansenula polymorpha [7]; 0.1%) was 1.5 U/mL, the “extracting effect on HOX” value (Hansenula polymorpha [7]; 0.1-1.0%) was “no extracting effect” and the HOX activity (Hansenula polymorpha [7]; 0.2%) was 1.6 U/mL. For the same compound, the HOX activity (Hansenula polymorpha [7]; 0.4%) was 1.8 U/mL, the HOX activity (Hansenula polymorpha [7]; 0.6%) was 1.9 U/mL and the HOX activity (Hansenula polymorpha [7]; 1.0%) was 1.9 U/mL.

Source: US7455990B2, “Method of extracting recombinant hexose oxidase” (priority 1999, dated 2008)
